Experimental data published in PubChem BioAssay (NCI).
Several values for one entry are separate records, joined by “and”; a condition that tells them apart may be missing. Equal values may be shown once.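 48-hour exposure; five concentrations; linearly interpolated endpoints. GI50 = concentration required for 50% inhibition of growth. TGI is the concentration that stops growth completely.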

Key:
Assay in all cases: inhibition of tumour cell growth, NCI panel, 48 h
HCC-2998 colon = system: HCC-2998 colon
LXFL 529 NSCLC = system: LXFL 529 NSCLC
SNB-19 CNS = system: SNB-19 CNS
HL-60(TB) leukemia = system: HL-60(TB) leukemia
KM12 colon = system: KM12 colon
U251 CNS = system: U251 CNS
OVCAR-4 ovarian = system: OVCAR-4 ovarian
M19-MEL melanoma = system: M19-MEL melanoma
TK-10 renal = system: TK-10 renal
T-47D breast = system: T-47D breast

SMILES | TGI (HCC-2998 colon) | TGI (LXFL 529 NSCLC) | TGI (SNB-19 CNS) | TGI (HL-60(TB) leukemia) | TGI (KM12 colon) | TGI (U251 CNS) | TGI (OVCAR-4 ovarian) | TGI (M19-MEL melanoma) | TGI (TK-10 renal) | GI50 (HCC-2998 colon) | GI50 (LXFL 529 NSCLC) | GI50 (SNB-19 CNS) | GI50 (M19-MEL melanoma) | GI50 (TK-10 renal) | TGI (T-47D breast) | GI50 (T-47D breast) | GI50 (HL-60(TB) leukemia) | GI50 (KM12 colon) | GI50 (U251 CNS) | GI50 (OVCAR-4 ovarian)
CC1=C(C(=O)Nc2cc(F)c(F)cc2F)C(c2ccc([N+](=O)[O-])cc2)C(C(=O)Nc2cc(F)c(F)cc2F)=C(C)N1 | 60.5 µM | > 100 µM | > 100 µM | 35.7 µM | > 100 µM | > 100 µM | > 100 µM | > 100 µM | 95.1 µM | – | – | – | – | – | – | – | – | – | – | –
CCOc1ccc(NC(=O)CC2C(=O)Nc3ccccc3S2(=O)=O)cc1 (stereo not given) | > 100 µM | > 100 µM | > 100 µM | > 100 µM | > 100 µM | > 100 µM | > 100 µM | > 100 µM | > 100 µM | – | – | – | – | – | – | – | – | – | – | –
O=C(NNc1ccccc1)/C(=C/c1ccc2c(c1)OCO2)NC(=O)c1ccccc1 | > 100 µM | > 100 µM | > 100 µM | > 100 µM | > 100 µM | > 100 µM | > 100 µM | – | > 100 µM | – | – | – | – | – | – | – | – | – | – | –
CC(=O)C1=C(O)C2C3c4c[nH]c5cccc(c45)CC3C(C)(C)N2C1=O (stereo not given) | 63.4 µM | > 100 µM | > 100 µM | 9.85 µM | > 100 µM | > 100 µM | > 100 µM | > 100 µM | > 100 µM | – | – | – | – | – | – | – | – | – | – | –
CC(=O)NNc1nc(C)c(C(=O)NNC(=O)C(=O)Nc2ccc(Cl)cc2Cl)s1 | > 100 µM | > 100 µM | > 100 µM | 99.2 µM | > 100 µM | 82.6 µM | 56.8 µM | > 100 µM | > 100 µM | – | – | – | – | – | – | – | – | – | – | –
COc1cccc(-c2cc(=O)c3ccccc3[nH]2)c1 | 18.1 µM | > 100 µM | > 100 µM | 8.57 µM | > 48.4 µM | > 100 µM | > 100 µM | > 100 µM | > 100 µM | – | – | – | – | – | – | – | – | – | – | –
COc1ccc(/C=C/C(=O)c2sc(-n3nc(-c4ccccc4)cc3-c3ccccc3)nc2C)cc1 | > 100 µM | > 100 µM | > 100 µM | – | > 100 µM | > 100 µM | > 100 µM | > 100 µM | > 100 µM | > 100 µM | > 100 µM | > 100 µM | > 100 µM | > 100 µM | – | – | – | – | – | –
CC(C)(C)C(C#N)(C#N)c1ccc(C(C#N)(C#N)C(C)(C)C)nn1 | > 100 µM | > 100 µM | > 100 µM | > 100 µM | > 100 µM | – | > 100 µM | > 100 µM | > 100 µM | – | – | – | – | – | – | – | – | – | – | –
CN1c2ccccc2N(C(=O)c2ccccc2)C(CC(=O)O)c2cccn21 (stereo not given) | > 100 µM | > 100 µM | > 100 µM | > 100 µM | > 100 µM | > 100 µM | > 100 µM | > 100 µM | > 100 µM | – | – | – | – | – | – | – | – | – | – | –
C[C@]12CCC3[C@@H](CC[C@@H]4c5nonc5CC[C@]34C)C1CC[C@@H]2O (stereo not given in full) | > 100 µM | > 100 µM | > 100 µM | 43.9 µM | > 100 µM | 45.7 µM | 82.4 µM | > 100 µM | > 100 µM | – | – | – | – | – | – | – | – | – | – | –
c1ccc2c(c1)cc1n2CC2CN=NC12 (stereo not given) | > 100 µM | > 100 µM | > 100 µM | > 100 µM | > 100 µM | > 100 µM | > 100 µM | > 100 µM | – | – | – | – | – | – | – | – | – | – | – | –
CN(c1ccccc1)c1c(Cl)c(=O)oc2c1ccc1occc12 | > 100 µM | > 100 µM | > 100 µM | > 100 µM | – | > 100 µM | > 100 µM | > 100 µM | > 100 µM | – | – | – | – | – | – | – | – | – | – | –
C=CCc1cc(OC)c2c(c1)C(OC)CC(c1ccc(OC)c(OC)c1)O2 (stereo not given) | > 100 µM | > 100 µM | > 100 µM | > 100 µM | > 100 µM | > 100 µM | > 100 µM | > 100 µM | > 100 µM | – | – | – | – | – | – | – | – | – | – | –
CC1=C(C(=O)Nc2ccc(Cl)c(C(=O)OC(C)C)c2)SCCO1 | 75 µM | – | > 77.4 µM | 51 µM | > 100 µM | 81.3 µM | > 97.6 µM | 75.5 µM | > 100 µM | – | – | – | – | – | > 100 µM | – | – | – | – | –
CSc1ccc2c(c1)C(N1CCN(C)CC1)Cc1ccccc1S2 (stereo not given) | 25.9 µM and 3.08 µM | – | 28.5 µM and 6.13 µM | 10.7 µM and 3.81 µM | 7.49 µM and 3.55 µM | 18.6 µM and 2.95 µM | 9.66 µM and 9.89 µM | – | 12.8 µM and 3.41 µM | 1.65 µM | – | 2.36 µM | – | 1.84 µM | 42.5 µM and 5.17 µM | 2.19 µM | 1.94 µM | 1.83 µM | 1.53 µM | 2.6 µM
Cc1cc(Cl)nc(N(CCCNc2ccnc3cc(Cl)ccc23)Cc2ccco2)n1 | 5.67 µM | – | 14.7 µM | 5.14 µM | 11.5 µM | 6.15 µM | 12.2 µM | – | 11.1 µM | 1.97 µM | – | 3.46 µM | – | 2.7 µM | 6.43 µM | 1.73 µM | 2.05 µM | 2.79 µM | 2.07 µM | 2.31 µM
CC1(C)C(=O)C(C)(C)C1=S | > 100 µM | > 100 µM | > 100 µM | > 100 µM | > 100 µM | > 100 µM | > 100 µM | > 100 µM | > 100 µM | – | – | – | – | – | – | – | – | – | – | –
CCOC(=O)c1cnc2c(C)cccc2c1Nc1ccc(C(C)=O)cc1 | > 100 µM | – | > 100 µM | > 100 µM | > 100 µM | > 100 µM | 55.3 µM | – | 82.9 µM | 53.3 µM | – | 40.2 µM | – | 32.8 µM | 44.9 µM | 8.2 µM | > 100 µM | 51.2 µM | 63.8 µM | 13.5 µM
O=C(Nc1nc2c(ncn2C2OC(CO)C(O)C2O)c(=O)[nH]1)c1ccccc1 (stereo not given) | – | > 100 µM | – | > 100 µM | > 100 µM | > 100 µM | > 100 µM | > 100 µM | > 100 µM | – | – | – | – | – | – | – | – | – | – | –
COc1ccc(N(C)c2nc(N)nc3sc4c(c23)CCCC4)cc1 | 12 µM | – | 16.9 µM | 0.0101 µM | 12 µM | 15 µM | 15.3 µM | – | 22 µM | < 0.0146 µM | – | < 0.01 µM | – | < 0.0278 µM | 30.8 µM | < 0.01 µM | < 0.01 µM | < 0.01 µM | < 0.0114 µM | < 0.01 µM
Cn1ncc(Cl)c1-c1cc(C(=O)N[C@H](CN)Cc2ccc(F)c(F)c2)oc1Cl | 6.23 µM and 2.08 µM | – | 12.9 µM and > 10 µM | 9.62 µM and 6.76 µM | 6.73 µM and 4.43 µM | 13.5 µM and > 9.51 µM | 17.2 µM and > 10 µM | – | 8.74 µM and 3.92 µM | – | – | 0.486 µM and 0.252 µM | – | 0.961 µM and 0.203 µM | – | 0.0193 µM and 0.0245 µM | 2.9 µM and 2.05 µM | 0.59 µM and 0.255 µM | 0.289 µM and 0.171 µM | 4.06 µM and 5.4 µM
